From patent US9493524B2, “Methods for treatment of stroke or cerebrovascular accidents using an ETB receptor agonist” (MIDWESTERN UNIVERSITY, priority 2007, dated 2016)

Columns and labels:
Assay type in all cases: in vivo, Sprague-Dawley rats
[1] = test system: urethane anesthetized rat; assay: Cerebral blood perfusion by Laser Doppler Flowmetry
Description: (§1) Male Sprague-Dawley rats weighing 323±4 grams (g) were anesthetized with urethane (ethyl carbamate, Sigma Aldrich, St. Louis, Mo.) dissolved in isotonic saline (0.9% NaCl, Hospira, Inc., Lake Forest, Ill.). The rats were administered a dose of 0.15 g per 100 g body weight via intraperitoneal (i.p.) injection.
Cerebral Perfusion: A burr hole was drilled into the rat skull about 2 millimeters (mm) to the left of midline. Cerebrovascular perfusion was measured via a fiber optic probe (PF407) applied to the surface of the rat brain. The probe was connected to a Periflux PF2b 4000 Laser Doppler Flowmetry unit (Perimed, Stockholm, Sweden).
(§2) The rats were randomly selected for various studies. Following surgery the rats were allowed to stabilize for 30 minutes and a 15 minutes baseline recording of all parameters (blood pressure, heart rate, cerebral blood flow, and renal blood flow) was obtained prior to the administration of the pretreatment followed by IRL-1620 (Suc-[Glu 9, Ala 11,15], American Peptide Co, Inc., Sunnyville, Calif.) or ET-1 (Ala 1,3,11,15, RBI Sigma, Natick, Mass.). BQ-788, a selective endothelin B antagonist, is the sodium salt of N-cis-2,6-dimethylpiperidinocarbonyl-L-gamma-methylleucyl-D-1-methoxycarbonyl triptophanyl-DNIe (see Proc. Natl. Acad. Sci. USA, 91, pp. 4892-4896 (1994)) BMS is BMS 182, 874, which is a selective endothelin A antagonist having a structure
(§3) Group 1: Animals (n=4) were pretreated with saline 15 minutes (min) prior to administration of IRL-1620 (5 μg/kg, i.v.).
(§4) Group 2: Animals (n=4) were pretreated with BMS (5 mg/kg, i.v.) 15 min prior to administration of IRL-1620 (5 μg/kg, i.v.).
(§5) Group 3: Animals (n=4) were pretreated with BMS (15 mg/kg, i.v.) 15 min prior to administration of IRL-1620 (5 μg/kg, i.v.).
(§6) Group 4: Animals (n=4) were pretreated with BQ788 (1 μg/kg, i.v.) 15 min prior to administration of IRL-1620 (5 μg/kg, i.v.).
(§7) Group 1: Animals (n=4) were pretreated with saline 15 min prior to administration of ET-1 (0.75 μg/kg, i.v.).
(§8) Group 2: Animals (n=4) were pretreated with BMS (5 mg/kg, i.v.) 15 min prior to administration of ET-1 (0.75 μg/kg, i.v.).
(§9) Group 3: Animals (n=4) were pretreated with BMS (15 mg/kg, i.v.) 15 min prior to administration of ET-1 (0.75 μg/kg, i.v.).
(§10) Group 4: Animals (n=4) were pretreated with BQ788 (1 μg/kg, i.v.) 15 min prior to administration of ET-1 (0.75 μg/kg, i.v.).
(§11) Blood pressure, heart rate, cerebral blood perfusion, and renal blood perfusion all were recorded for 2 hours following the final injection. Blood gases were analyzed prior to administration of any drugs, and at 60 and 120 min following administration of IRL-1620 or ET-1. At the end of each experiment, the animals were euthanized with an overdose of urethane i.v. In the figures, all data values are presented as mean±SEM. One-sample t-tests and one-way ANOVAs were used to test the differences within and between the groups. A P value of P<0.05 was considered significant.

[2] = test system: urethane anesthetized rat; assay: Blood pressure / mean arterial pressure recording; conditions: i.v.; for decrease in mean arterial pressure: IRL-1620 5.0 μg/kg; for decrease in mean arterial pressure / increase in mean arterial pressure (subsequent hypertension): FIG. 11
Description: as §1
(§12) Blood Pressure and Heart Rate: The femoral vein and artery were cannulated. The arterial cannula was connected to a Gould P23 ID pressure transducer for recording the blood pressure on a Grass P7D polygraph through a 7PI preamplifier. The heart rate was recorded through a 7P4B Grass tachograph, triggered from blood pressure signals. Drugs were administered via the venous cannula.
as §2, §3, §4, §5, §6, §7, §8, §9, §10, §11

[3] = test system: urethane anesthetized rat; assay: Heart rate recording; conditions: IRL-1620 5 μg/kg; for heart rate: mean±SEM, in bpm (unit assumed)
Description: as §1, §12, §2, §3, §4, §5
Group 4: Animals (n=4) were pretreated with BQ788 (1 μg/kg, i.v.) 15 min prior to administration of IRL-1620 (5 μg/kg, i.v.). […]
as §11

[4] = test system: urethane anesthetized rat; assay: Arterial blood gas analysis; conditions: IRL-1620 5 μg/kg, i.v., ET-1 0.75 μg/kg
Description: as §1
Blood Gas Analysis: Arterial blood gases were monitored to determine the effects on pH, pCO2, and pO2. Blood was drawn from the arteriole cannula and analyzed using a GEM Premier 3000 unit (Instrument Laboratory, Lexington, Mass.).
as §11

[5] = test system: urethane anesthetized rat; assay: Renal blood perfusion by Laser Doppler Flowmetry; conditions: i.v.
Description: as §1
Renal Perfusion: The right kidney was dissected retroperitoneally. Renal perfusion was measured via a fiber optic probe (PF408) applied to the surface of the rat kidney. The probe was connected to a Periflux PF2b 4000 Laser Doppler Flowmetry unit (Perimed, Stockholm, Sweden).
as §2, §3, §4, §5, §6, §7, §8, §9, §10, §11

[6] = time 0 min (prior to any drugs)

For “ET-1: endothelin-1 (ET-1), a 21-amino acid peptide (ASASSLMDKEAVYFAHLDIIW)”, the “change in cerebral blood flow” value ([1]; ET-1 0.75 μg/kg, i.v., FIG. 5) was “no significant change”, the “decrease in mean arterial pressure” value ([2]; at 0.2 minute, ET-1 0.75 μg/kg) was 43.16% and the “decrease in mean arterial pressure” value ([2]; at 0.5 minute, ET-1 0.75 μg/kg) was 37.80%. The “decrease in mean arterial pressure” value ([2]; at 1 minute, ET-1 0.75 μg/kg) was 19.30%, the “increase in mean arterial pressure (subsequent hypertension)” value (shortened to “increase in mean arterial pressure”) ([2]; at 5 minutes, ET-1 0.75 μg/kg) was 12.72% and the “increase in mean arterial pressure” value ([2]; at 10 minutes, ET-1 0.75 μg/kg) was 25.56%. For the same compound, the “increase in mean arterial pressure” value ([2]; at 15 minutes, ET-1 0.75 μg/kg) was 28.49%, the “effect on heart rate (Table 1)” value ([3]; i.v. after saline, ET-1 with or without pretreatment) was “No significant alteration” and the “effect on arterial blood gases (text to Table 2)” value [4] was “Neither IRL-1620 nor ET-1 significantly affected blood gases”. The “arterial blood pCO2” value [4, 6] was 34 ± 3, the “arterial blood pH” value [4, 6] was 7.32 ± 0.01 and the “arterial blood pO2” value [4, 6] was 118 ± 4. The “arterial blood pCO2” value ([4]; time 60 min) was 40 ± 4, the “arterial blood pH” value ([4]; time 60 min) was 7.29 ± 0.01 and the “arterial blood pO2” value ([4]; time 60 min) was 110 ± 2. The “arterial blood pCO2” value ([4]; time 120 min) was 38 ± 4, the “arterial blood pH” value ([4]; time 120 min) was 7.27 ± 0.01 and the “arterial blood pO2” value ([4]; time 120 min) was 116 ± 5. The “persistence of the decrease in renal blood flow” value ([5]; IRL-1620 5 μg/kg, ET-1 0.75 μg/kg, FIG. 8) was “approximately 15 minutes”, the “decrease in renal blood flow” value ([5]; at 1 minute, IRL-1620 5 μg/kg, ET-1 0.75 μg/kg, FIG. 8) was 40.27% and the “decrease in renal blood flow” value ([5]; at 5 minutes, IRL-1620 5 μg/kg, ET-1 0.75 μg/kg, FIG. 8) was 50.10%. The “decrease in renal blood flow” value ([5]; at 10 minutes, IRL-1620 5 μg/kg, ET-1 0.75 μg/kg, FIG. 8) was 26.33%.
With Cc1noc(NS(=O)(=O)c2cccc3c(N(C)C)cccc23)c1C [BMS] the “effect of pretreatment on the effect of ET-1 on cerebral blood flow” value ([1]; BMS 5 and 15 mg/kg, i.v., BQ788 1 μg/kg, ET-1 0.75 μg/kg, FIG. 7) was “no significant change”, the “transient increase in cerebral blood flow” value ([1]; high dose of BMS (15 mg/kg, i.v.) pretreatment, 1 minute after administration of IRL-1620 5 μg/kg, FIG. 6) was 37.99% and the “effect of pretreatment on the effect of ET-1 on mean arterial pressure” value ([2]; BMS 5 and 15 mg/kg, BQ788 1 μg/kg, ET-1 0.75 μg/kg, FIG. 13) was “failed to alter”. The “effect of pretreatment on the effect of IRL-1620 on mean arterial pressure” value ([2]; BMS 5 and 15 mg/kg, BQ788 1 μg/kg, IRL-1620 5 μg/kg, FIG. 12) was “transient hypotension similar to that observed in animals pretreated with saline”, the heart rate ([3]; 5 mg/kg BMS pretreatment, i.v., time 0 min) was 339 ± 6 and the heart rate ([3]; 5 mg/kg BMS pretreatment, i.v., time 1 min) was 365 ± 4. For the same compound, the heart rate ([3]; 5 mg/kg BMS pretreatment, i.v., time 5 min) was 357 ± 13, the heart rate ([3]; 5 mg/kg BMS pretreatment, i.v., time 10 min) was 345 ± 14 and the heart rate ([3]; 5 mg/kg BMS pretreatment, i.v., time 15 min) was 345 ± 14. The heart rate ([3]; 5 mg/kg BMS pretreatment, i.v., time 30 min) was 356 ± 12, the heart rate ([3]; 5 mg/kg BMS pretreatment, i.v., time 45 min) was 367 ± 14 and the heart rate ([3]; 5 mg/kg BMS pretreatment, i.v., time 60 min) was 370 ± 14. For the same compound, the heart rate ([3]; 5 mg/kg BMS pretreatment, i.v., time 90 min) was 350 ± 9, the heart rate ([3]; 5 mg/kg BMS pretreatment, i.v., time 120 min) was 327 ± 12 and the heart rate ([3]; 15 mg/kg BMS pretreatment, i.v., time 0 min) was 405 ± 11. The heart rate ([3]; 15 mg/kg BMS pretreatment, i.v., time 1 min) was 425 ± 11, the heart rate ([3]; 15 mg/kg BMS pretreatment, i.v., time 5 min) was 382 ± 13 and the heart rate ([3]; 15 mg/kg BMS pretreatment, i.v., time 10 min) was 380 ± 11. It also gave a heart rate ([3]; 15 mg/kg BMS pretreatment, i.v., time 15 min) of 384 ± 11, a heart rate ([3]; 15 mg/kg BMS pretreatment, i.v., time 30 min) of 387 ± 17 and a heart rate ([3]; 15 mg/kg BMS pretreatment, i.v., time 45 min) of 387 ± 21. The heart rate ([3]; 15 mg/kg BMS pretreatment, i.v., time 60 min) was 395 ± 19, the heart rate ([3]; 15 mg/kg BMS pretreatment, i.v., time 90 min) was 393 ± 21 and the heart rate ([3]; 15 mg/kg BMS pretreatment, i.v., time 120 min) was 386 ± 18. For the same compound, the “effect of pretreatment on the effect of IRL-1620 on heart rate (Table 1)” value ([3]; BMS 5 and 15 mg/kg, BQ788, i.v.) was “increase”, the “effect of pretreatment on the effect of ET-1 on renal blood flow” value ([5]; BMS 5 and 15 mg/kg, BQ788 1 μg/kg, ET-1 0.75 μg/kg, FIG. 10) was “No pretreatment significantly altered” and the “effect of pretreatment on the effect of IRL-1620 on renal blood flow” value ([5]; BMS 5 and 15 mg/kg, BQ788 1 μg/kg, IRL-1620 5 μg/kg, FIG. 9) was “sustained decrease in renal blood flow up to 120 minutes”.
